Laboratory results as given in ChEMBL document CHEMBL3045195, “Comparison of the activity of non-steroidal ecdysone agonists between dipteran and lepidopteran insects, using cell-based EcR reporter assays” (Pest Manag Sci, 2010).
Calls of active or inactive are those of the source. The calls are words filed in the database; no cut-off is given here.

Legend:
Type in all cases: cell-based
[1] = biological target: T1, Ecdysone receptor (Drosophila melanogaster) (UniProt P34021+P20153); assay: Agonist activity at ecdysone receptor in Drosophila melanogaster S2 cells at 100 uM after 24 hr by luciferase reporter gene assay relative to 20-hydroxyecdysone
Ecdysone receptor [2] = biological target: T2, Ecdysone receptor (Drosophila melanogaster, UniProt P20153+P34021); assay: (§1) Agonist activity at ecdysone receptor in Drosophila melanogaster S2 cells after 24 hr by luciferase reporter gene assay
T2 sequence (P34021 whole entry): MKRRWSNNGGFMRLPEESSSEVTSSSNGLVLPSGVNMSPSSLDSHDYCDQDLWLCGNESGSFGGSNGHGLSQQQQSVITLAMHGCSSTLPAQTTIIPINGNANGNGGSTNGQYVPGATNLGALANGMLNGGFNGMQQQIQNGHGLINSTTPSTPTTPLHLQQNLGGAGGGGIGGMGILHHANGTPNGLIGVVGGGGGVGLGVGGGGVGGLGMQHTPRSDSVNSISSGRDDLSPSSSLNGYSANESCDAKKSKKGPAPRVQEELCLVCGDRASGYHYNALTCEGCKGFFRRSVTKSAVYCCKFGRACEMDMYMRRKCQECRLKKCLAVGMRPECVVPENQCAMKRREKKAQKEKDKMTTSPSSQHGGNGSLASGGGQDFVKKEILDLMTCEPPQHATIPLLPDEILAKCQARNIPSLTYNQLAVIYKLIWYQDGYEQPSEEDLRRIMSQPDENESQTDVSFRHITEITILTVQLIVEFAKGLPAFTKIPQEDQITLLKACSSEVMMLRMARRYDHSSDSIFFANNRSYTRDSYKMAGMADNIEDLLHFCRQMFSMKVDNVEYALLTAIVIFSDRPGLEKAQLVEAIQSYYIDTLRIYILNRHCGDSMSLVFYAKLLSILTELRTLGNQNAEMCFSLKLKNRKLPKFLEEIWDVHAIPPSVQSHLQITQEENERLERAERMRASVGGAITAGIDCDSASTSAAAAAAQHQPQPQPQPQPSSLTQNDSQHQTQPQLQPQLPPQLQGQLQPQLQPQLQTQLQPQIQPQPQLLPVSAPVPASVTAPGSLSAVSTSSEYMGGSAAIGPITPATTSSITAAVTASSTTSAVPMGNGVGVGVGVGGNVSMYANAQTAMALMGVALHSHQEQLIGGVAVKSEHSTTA
T2 sequence (P20153 whole entry): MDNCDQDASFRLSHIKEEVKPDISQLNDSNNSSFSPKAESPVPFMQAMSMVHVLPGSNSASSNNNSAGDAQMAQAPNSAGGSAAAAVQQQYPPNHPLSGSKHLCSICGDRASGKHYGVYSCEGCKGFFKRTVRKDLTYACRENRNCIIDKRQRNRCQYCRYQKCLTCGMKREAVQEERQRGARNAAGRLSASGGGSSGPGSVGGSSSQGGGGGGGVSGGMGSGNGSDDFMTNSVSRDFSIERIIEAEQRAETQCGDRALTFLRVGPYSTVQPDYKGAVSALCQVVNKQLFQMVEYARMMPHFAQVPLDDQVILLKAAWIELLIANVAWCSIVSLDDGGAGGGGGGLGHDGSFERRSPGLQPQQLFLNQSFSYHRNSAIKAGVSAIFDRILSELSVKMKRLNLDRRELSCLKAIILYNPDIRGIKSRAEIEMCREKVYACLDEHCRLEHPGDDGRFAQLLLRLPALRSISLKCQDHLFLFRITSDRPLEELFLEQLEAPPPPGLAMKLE

Ecdysone receptor [3] = biological target: T3, Ecdysone receptor (Bombyx mori, UniProt P49881); assay: Agonist activity at ecdysone receptor in Bombyx mori Bm5 cells after 24 hr by luciferase reporter gene assay
T3 sequence (P49881 whole entry): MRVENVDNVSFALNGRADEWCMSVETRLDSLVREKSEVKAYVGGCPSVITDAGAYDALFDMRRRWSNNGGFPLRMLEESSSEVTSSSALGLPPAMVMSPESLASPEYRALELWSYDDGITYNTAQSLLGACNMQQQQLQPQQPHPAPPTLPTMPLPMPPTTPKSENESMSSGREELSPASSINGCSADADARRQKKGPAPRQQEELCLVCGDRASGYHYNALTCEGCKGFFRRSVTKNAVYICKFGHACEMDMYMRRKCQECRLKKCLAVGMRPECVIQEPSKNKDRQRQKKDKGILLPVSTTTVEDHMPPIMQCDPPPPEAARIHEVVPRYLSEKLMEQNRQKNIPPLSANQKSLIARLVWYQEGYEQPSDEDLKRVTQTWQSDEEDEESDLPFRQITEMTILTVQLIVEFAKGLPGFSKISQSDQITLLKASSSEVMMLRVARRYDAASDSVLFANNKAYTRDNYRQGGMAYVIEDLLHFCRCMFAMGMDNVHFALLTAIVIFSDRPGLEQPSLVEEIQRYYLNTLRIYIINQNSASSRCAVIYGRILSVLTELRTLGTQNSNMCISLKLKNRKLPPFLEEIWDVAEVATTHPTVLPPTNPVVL

[4] = biological target: T1, Ecdysone receptor (Drosophila melanogaster); assay: as §1

| Efficacy [1] [%] | EC50 (Ecdysone receptor [2]) [µM] | SMILES | EC50 (Ecdysone receptor [3]) [µM] | pEC50 [4] |
| --- | --- | --- | --- | --- |
| 48 | 107 | Cc1cccc(C(=O)NN(C(=O)c2ccccc2Cl)C(C)(C)C)c1 | 0.603 | – |
| 60 | 66.1 | Cc1ccc(C(=O)NN(C(=O)c2ccccc2Cl)C(C)(C)C)cc1C | 0.0871 | – |
| 71 | 12 | CCOc1cccc(C(=O)NN(C(=O)c2cc(C)cc(C)c2)C(C)(C)C)c1C | 0.0525 | – |
| 50 | 97.7 | CCc1ccccc1C(=O)N(NC(=O)c1ccccc1)C(C)(C)C | 0.589 | – |
| – | – | CCc1ccc(C(=O)NC(CC)(CC)C(=O)c2cc(C)cc(C)c2)cc1 | – | inactive |
| – | – | CCCCCCC(=O)N(NC(=O)c1ccccc1)C(C)(C)C | 7.24 | inactive |
| 74 | 7.76 | CC(C)(C)N(NC(=O)c1cccc(Cl)c1Cl)C(=O)c1ccccc1Cl | 0.00933 | – |
| 52 | 93.3 | CC(C)(C)N(NC(=O)c1ccc(C#N)cc1)C(=O)c1ccccc1Cl | 0.603 | – |
| – | – | CCC(CC)(NC(=O)c1ccc2c(c1C)CCCO2)C(=O)c1cc(C)cc(C)c1 | – | inactive |
| 77 | 16.6 | COc1cccc(C(=O)NN(C(=O)c2ccccc2Cl)C(C)(C)C)c1C | 0.0155 | – |
| – | – | CCCCC(=O)NN(C(=O)c1cc(C)cc(C)c1)C(C)(C)C | 1.86 | inactive |
| – | – | CCCCN(C(=O)c1ccccc1)N(C(=O)c1ccccc1)C(C)(C)C | > 100 | inactive |
| – | – | CCCCCC(=O)N(NC(=O)c1cc(C)cc(C)c1)C(C)(C)C | 8.71 | inactive |
| – | – | CCCCCC(=O)N(NC(=O)c1ccc(CC)cc1)C(C)(C)C | 2.82 | inactive |
| 67 | 36.3 | CC(C)(C)N(NC(=O)c1cccc(C#N)c1)C(=O)c1ccccc1Cl | 0.955 | – |
| 58 | 72.4 | COc1cccc(C(=O)NN(C(=O)c2ccccc2Cl)C(C)(C)C)c1 | 0.0525 | – |
| – | – | CCc1ccc(C(=O)NN(C(=O)C2CCCCC2)C(C)(C)C)cc1 | 9.33 | inactive |
| 76 | 11.5 | Cc1cccc(C(=O)NN(C(=O)c2ccccc2Cl)C(C)(C)C)c1C | 0.02 | – |

| Efficacy [1] [%] | EC50 (Ecdysone receptor [2]) [µM] | SMILES | EC50 (Ecdysone receptor [3]) [µM] | pEC50 [4] |
| --- | --- | --- | --- | --- |
| – | – | CCCCCCC(=O)N(NC(=O)c1ccc(CC)cc1)C(C)(C)C | 11.7 | inactive |
| 59 | 60.3 | CC(C)(C)N(NC(=O)c1ccccc1Br)C(=O)c1ccccc1Cl | 0.316 | – |
| 46 | 107 | Cc1ccc(C)c(C(=O)NN(C(=O)c2ccccc2Cl)C(C)(C)C)c1 | 1.62 | – |
| – | – | CN(C(=O)c1ccccc1)N(C)C(=O)c1ccccc1 | > 100 | inactive |
| – | – | CC(C)(C)N(NC(=O)c1ccccc1)C(=O)C1CCCCC1 | 46.8 | inactive |
| – | – | CCc1ccc(C(=O)NN(C(=O)CCC(C)C)C(C)(C)C)cc1 | 0.832 | inactive |
| – | – | CCCCCCCC(=O)NN(C(=O)c1cc(C)cc(C)c1)C(C)(C)C | 0.0977 | inactive |
| 76 | 25.7 | CC(C)(C)N(NC(=O)c1cccc(F)c1)C(=O)c1ccccc1Cl | 0.0692 | – |
| 60 | 45.7 | COc1cccc(C(=O)NN(C(=O)c2cc(C)cc(C)c2)C(C)(C)C)c1 | 0.0661 | – |
| – | – | CCCCCCCCCC(=O)NN(C(=O)c1cc(C)cc(C)c1)C(C)(C)C | 1.55 | inactive |
| 40 | 148 | CC(C)(C)N(NC(=O)c1ccccc1)C(=O)c1ccc(Cl)cc1Cl | 0.117 | – |
| 80 | 13.2 | CC(C)(C)N(NC(=O)c1cccc(Br)c1)C(=O)c1ccccc1Cl | 0.191 | – |
| 62 | 37.2 | CC(C)(C)N(NC(=O)c1ccc(F)cc1)C(=O)c1ccccc1Cl | 0.389 | – |
| 6 | > 100 | O=C(NN(C(=O)c1ccccc1)c1ccccc1)c1ccccc1 | 25.7 | – |
| 54 | 87.1 | CC(C)(C)N(NC(=O)c1ccccc1I)C(=O)c1ccccc1Cl | 1.29 | – |
| – | – | Cc1cc(C)cc(C(=O)C2(NC(=O)C(F)(F)F)CCCCC2)c1 | – | inactive |
| – | – | CCc1ccc(C(=O)NC(C(=O)c2cc(C)cc(C)c2)C(C)(C)C)cc1 (racemic) | – | inactive |
| 52 | 81.3 | CC(C)(C)N(NC(=O)c1ccc(Cl)cc1)C(=O)c1ccccc1Cl | 0.115 | – |

| SMILES | Efficacy [1] [%] | EC50 (Ecdysone receptor [2]) [µM] | EC50 (Ecdysone receptor [3]) [µM] | pEC50 [4] |
| --- | --- | --- | --- | --- |
| CC(C)(C)N(Cc1ccccc1)NC(=O)c1ccccc1 | 1 | > 100 | – | – |
| Cc1cc(C)cc(C(=O)N(NC(=O)CCC(C)C)C(C)(C)C)c1 | 35 | > 100 | 0.0912 | – |
| CC(C)(C)N(NC(=O)c1ccccc1F)C(=O)c1ccccc1Cl | 73 | 33.9 | 0.0513 | – |
| O=C(NN(CC1CCCCC1)C(=O)c1ccccc1)c1ccccc1 | 1 | > 100 | 1.7 | – |
| O=C(NN(C(=O)c1ccccc1)C1CCCCC1)c1ccccc1 | 18 | > 100 | 0.891 | – |
| CCc1ccc(C(=O)NN(C(=O)c2cccc3ccccc23)C(C)(C)C)cc1 | 53 | 10.5 | 0.0132 | – |
| CCCCCCC(=O)NN(C(=O)c1ccccc1Cl)C(C)(C)C | 10 | > 100 | 0.741 | – |
| CCc1ccc(C(=O)NN(C(=O)C2CC=CCC2)C(C)(C)C)cc1 (configuration not stated) | 1 | > 100 | 1 | – |
| CC(C)c1ccc(C(=O)NN(C(=O)c2ccccc2Cl)C(C)(C)C)cc1 | 88 | 12 | 0.0245 | – |
| Cc1cc(C)cc(C(=O)N(NC(=O)c2ccccc2)C(C)(C)C)c1 | 57 | 66.1 | 0.0692 | – |
| Cc1cc(C)c(Cl)c(C(=O)N(NC(=O)c2ccccc2)C(C)(C)C)c1 | 2 | > 100 | – | – |
| Cc1ccccc1C(=O)NN(C(=O)c1ccccc1Cl)C(C)(C)C | 83 | 25.7 | 0.0724 | – |
| CCCCCC(=O)NN(C(=O)c1cc(C)cc(C)c1)C(C)(C)C | 36 | > 100 | 0.0794 | – |
| CCCCN(NC(=O)c1ccccc1)C(=O)c1ccccc1 | 4 | > 100 | 7.08 | – |
| COc1ccc(C(=O)NN(C(=O)c2ccccc2Cl)C(C)(C)C)cc1 | 112 | 11.2 | 0.0513 | – |
| CC(C)CN(NC(=O)c1ccccc1)C(=O)c1ccccc1 | 33 | > 100 | 2.88 | – |
| CCc1ccc(C(=O)NN(C(=O)c2ccccc2)C(C)(C)C)cc1 | 52 | 5.5 | 0.0049 | – |
